From US9464069B2, “1,2-disubstituted cyclobutyl compounds” (LABORATORIOS DEL DR. ESTEVE S.A., priority 2013, dated 2016)
Structures can show the parent of a compound that is named as a salt.

Target: T1, human sigma 1 receptor (Homo sapiens, UniProt Q99720)
T1 construct: expressed in transfected cells; host or cells: HEK-293
Assay: Human Sigma 1 Receptor Radioligand Assay
Format: binding
Conditions: [3H](+)-pentazocine radioligand 5 nM; transfected HEK-293 membranes; 37° C., 120 minutes
Experimental: Human Sigma 1 Receptor Radioligand Assay
To investigate binding properties of sigma 1 receptor ligands to human sigma 1 receptor, transfected HEK-293 membranes and [^3H](+)-pentazocine (Perkin Elmer, NET-1056), as the radioligand, were used. The assay was carried out with 7 μg of membrane suspension, 5 nM of [^3H](+)-pentazocine in either absence or presence of either buffer or 10 μM Haloperidol for total and non-specific binding, respectively. Binding buffer contained Tris-HCl 50 mM at pH 8. Plates were incubated at 37° C. for 120 minutes. After the incubation period, the reaction mix was then transferred to MultiScreen HTS, FC plates (Millipore), filtered and plates were washed 3 times with ice-cold 10 mM Tris-HCL (pH 7.4). Filters were dried and counted at approximately 40% efficiency in a MicroBeta scintillation counter (Perkin-Elmer) using EcoScint liquid scintillation cocktail.

T1 sequence (Q99720 whole entry): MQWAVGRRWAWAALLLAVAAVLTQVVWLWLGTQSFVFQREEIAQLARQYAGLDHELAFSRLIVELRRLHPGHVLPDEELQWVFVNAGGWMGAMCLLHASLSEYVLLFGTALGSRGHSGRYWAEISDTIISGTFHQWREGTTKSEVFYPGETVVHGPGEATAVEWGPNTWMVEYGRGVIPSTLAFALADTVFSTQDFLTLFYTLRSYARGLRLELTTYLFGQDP

In the case of `c1ccc(OC[C@@H]2CC[C@@H]2CN2CCCC2)cc1` [Example 1, 1-(((1S,2R)-2-(Phenoxymethyl)cyclobutyl)methyl)pyrrolidine], the Ki is reported as 7.1 nM.
`CC1CCN(C[C@H]2CC[C@H]2COc2ccccc2)CC1` [Example 3, 4-Methyl-1-(((1S,2R)-2-(phenoxymethyl)cyclobutyl)methyl)piperidine] was tested, and the Ki was 2.8 nM.
For `Clc1ccc(-n2ccc(OC[C@@H]3CC[C@@H]3CN3CCCC3)n2)cc1Cl` [Example 13, 1-(3,4-Dichlorophenyl)-3-(((1R,2S)-2-(pyrrolidin-1-ylmethyl)cyclobutyl)methoxy)-1H-pyrazole], the Ki was 16.5 nM.
Compound `Cc1cc(OC[C@@H]2CC[C@@H]2CN2CCCC2)nn1-c1ccc(Cl)c(Cl)c1` [Example 15, 1-(3,4-Dichlorophenyl)-5-methyl-3-(((1R,2S)-2-(pyrrolidin-1-ylmethyl)cyclobutyl)methoxy)-1H-pyrazole] has a Ki of 50.3 nM.
`Cc1cc(OC[C@@H]2CC[C@@H]2CN2CCOCC2)nn1-c1ccc(Cl)c(Cl)c1` [Example 16, 4-(((1S,2R)-2-(((1-(3,4-Dichlorophenyl)-5-methyl-1H-pyrazol-3-yl)oxy)methyl)cyclobutyl)methyl)morpholine] gave a Ki of 178 nM.
In the case of `c1ccc(OC[C@@H]2CC[C@@H]2CN2CCOCC2)cc1` [Example 17, 4-(((1S,2R)-2-(Phenoxymethyl)cyclobutyl)methyl)morpholine hydrochloride], the Ki is reported as 33.9 nM.
`Clc1ccc(OC[C@@H]2CC[C@@H]2CN2CCCC2)cc1Cl` [Example 18, 1-(((1S,2R)-2-((3,4-Dichlorophenoxy)methyl)cyclobutyl)methyl)pyrrolidine hydrochloride] showed a Ki of 2.3 nM.
With `Clc1ccc(OC[C@@H]2CC[C@@H]2CN2CCOCC2)cc1Cl` [Example 19, 4-(((1S,2R)-2-((3,4-Dichlorophenoxy)methyl)cyclobutyl)methyl)morpholine hydrochloride] the Ki was 3.7 nM.
In the case of `CC1CCN(C[C@H]2CC[C@H]2COc2ccc(Cl)c(Cl)c2)CC1` [Example 20, 1-(((1S,2R)-2-((3,4-Dichlorophenoxy)methyl)cyclobutyl)methyl)-4-methylpiperidine hydrochloride], the Ki is reported as 4.8 nM.
Compound `Cn1nc(OC[C@@H]2CC[C@@H]2CN2CCCC2)cc1C(F)(F)F` [Example 21, 1-Methyl-3-(((1R,2S)-2-(pyrrolidin-1-ylmethyl)cyclobutyl)methoxy)-5-(trifluoromethyl)-1H-pyrazole hydrochloride] has a Ki of 19.1 nM.
`Cn1nc(OC[C@@H]2CC[C@@H]2CN2CCOCC2)cc1C(F)(F)F` [Example 22, 4-(((1S,2R)-2-(((1-Methyl-5-(trifluoromethyl)-1H-pyrazol-3-yl)oxy)methyl)cyclobutyl)methyl)morpholine hydrochloride] gave a Ki of 5.6 nM.
In the case of `Cn1nc(C(F)(F)F)cc1OC[C@@H]1CC[C@@H]1CN1CCCC1` [Example 23, 1-Methyl-5-(((1R,2S)-2-(pyrrolidin-1-ylmethyl)cyclobutyl)methoxy)-3-(trifluoromethyl)-1H-pyrazole hydrochloride], the Ki is reported as 30.1 nM.
`Clc1ccc(-n2ccc(OC[C@@H]3CC[C@@H]3CN3CCCC3)n2)cc1Cl` [Example 25, 1-(3,4-Dichlorophenyl)-3-(((1R,2S)-2-(pyrrolidin-1-ylmethyl)cyclobutyl)methoxy)-1H-pyrazole hydrochloride] was tested, and the Ki was 20.4 nM.
For `Clc1ccc(-n2ccc(OC[C@@H]3CC[C@@H]3CN3CCOCC3)n2)cc1Cl` [Example 26, 4-(((1S,2R)-2-(((1-(3,4-Dichlorophenyl)-1H-pyrazol-3-yl)oxy)methyl)cyclobutyl)methyl)morpholine hydrochloride], the Ki was 13.4 nM.
In the case of `Cc1cc(OC[C@@H]2CC[C@@H]2CN2CCCC2)nn1-c1ccc(Cl)c(Cl)c1` [Example 27, 1-(3,4-Dichlorophenyl)-5-methyl-3-(((1R,2S)-2-(pyrrolidin-1-ylmethyl)cyclobutyl)methoxy)-1H-pyrazole hydrochloride], the Ki is reported as 72.5 nM.
`Clc1ccc(-n2ccc(OC[C@@H]3CC[C@H]3CN3CCCC3)n2)cc1Cl` [Example 28] gave a Ki of 104 nM.
Work on `Cc1cc(OC[C@@H]2CC[C@H]2CN2CCCC2)nn1-c1ccc(Cl)c(Cl)c1` [Example 29, 1-(3,4-Dichlorophenyl)-5-methyl-3-(((1R,2R)-2-(pyrrolidin-1-ylmethyl)cyclobutyl)methoxy)-1H-pyrazole] yielded a Ki of 113 nM.
`Cc1cc(OC[C@@H]2CC[C@H]2CN2CCOCC2)nn1-c1ccc(Cl)c(Cl)c1` [Example 30, 4-(((1R,2R)-2-(((1-(3,4-Dichlorophenyl)-5-methyl-1H-pyrazol-3-yl)oxy)methyl)cyclobutyl)methyl)morpholine] gave a Ki of 578 nM.
Compound `Cn1nc(OC[C@@H]2CC[C@H]2CN2CCCC2)cc1C(F)(F)F` [Example 32, 1-Methyl-3-(((1R,2R)-2-(pyrrolidin-1-ylmethyl)cyclobutyl)methoxy)-5-(trifluoromethyl)-1H-pyrazole hydrochloride] has a Ki of 17.2 nM.
`Cn1nc(OC[C@H]2CC[C@H]2CN2CCCC2)cc1C(F)(F)F` [Example 34, 1-Methyl-3-(((1S,2R)-2-(pyrrolidin-1-ylmethyl)cyclobutyl)methoxy)-5-(trifluoromethyl)-1H-pyrazole hydrochloride] gave a Ki of 28.3 nM.
In the case of `Cc1cc(OC[C@H]2CC[C@@H]2CN2CCOCC2)nn1-c1ccc(Cl)c(Cl)c1` [Example 36, 4-(((1S,2S)-2-(((1-(3,4-Dichlorophenyl)-5-methyl-1H-pyrazol-3-yl)oxy)methyl)cyclobutyl)methyl)morpholine], the Ki is reported as 465 nM.
For `Cn1nc(OC[C@H]2CC[C@@H]2CN2CCCC2)cc1C(F)(F)F` [Example 38, 1-Methyl-3-(((1S,2S)-2-(pyrrolidin-1-ylmethyl)cyclobutyl)methoxy)-5-(trifluoromethyl)-1H-pyrazole hydrochloride], the Ki was 75.8 nM.
With `CCN(CC)C[C@H]1CC[C@@H]1COc1ccccc1` [Example 39, N,N-Diethyl-N-(((1S,2S)-2-(phenoxymethyl)cyclobutyl)methyl)ethanamine hydrochloride] the Ki was 39.9 nM.
